Structures are written as SMILES. Like-named read-outs stand apart in the source and are kept apart here.

Data set [1] deals with 60 human cancer cell lines. The conditions noted are these: cited from earlier work; for GI50 / CC50 / IC50: mean over 60 cell lines; for CC50: read-out: LC50, 50% cell death; for IC50: read-out: TGI or IC50, total growth inhibition.
For data set [2], the system named is 60 human cancer cell lines. Nature of the data set: NCI-60 five-dose screen, mean cytotoxicity over 60 human cancer cell lines. The class given is cell-based. How it is done:
The gold(III) complexes of this invention were screened by the National Cancer Institute (NCI, USA) against their panel of 60 different human cancer cell lines. These screens initially entail a one-dose test for the compound at a high concentration (10 μM; e.g. FIGS. 5, 6 and 7). Compounds with a good cytotoxicity profile in the one-dose screen are then subjected to a five-dose screen for the full panel of sixty human cancer cell lines (the so-called 5-dose NCI-60 screen). In the full five-dose screen, the compound concentration is varied in five doses from 10^−8 M to 10^−4 M in order to establish a dose-response function of percentage cell growth versus the concentration of the test agent. […] Similar data will shortly be available for compounds 1.1Y^1b and 1.5Y^1a as these derivatives are in 5-dose screens currently at the NCI.
The mean cytotoxicity data summarized in Scheme 7 were compiled over 60 human cancer cell lines from the NCI database. […] The dose-response curves for the bis(pyrrolide-imine) chelates of the invention are steeper, or harder, than those of all the compounds compared in Scheme 7.

For data set [3], the system named is HepG2 human hepatocellular carcinoma cells. Nature of the data set: HepG2 cytotoxicity / cell health parameters. The class given is cell-based. The settings on record: human. An excerpt:
(§1) The data for MA_AuPr in Scheme 22 are consistent with a cytotoxic compound capable of inducing apoptosis (programmed cell death) and, indeed, a compound that performs better than the control drug. […] Other cell health parameters which respond are a loss of total cells per well (indicating toxicity due to necrosis, apoptosis or a reduction in cellular proliferation), an increase in nuclear area (indicating necrosis or G2 cell cycle arrest), an increase in cytochrome c release (implying activation of a signalling cascade leading to apoptosis). The latter is particularly relevant as we may rule out cell death by necrosis in the case of MA_AuPr. The mechanism of action of the compound thus leads to cell cycle arrest in the G2 phase and the induction of apoptosis (highly desirable for an anticancer drug). […] Since the compound induces cytochrome c release, cytotoxicity involves apoptosis.

Data set [4] is described as follows: HepG2 cytotoxicity / cell health parameters. The settings on record: human. Format: cell-based, human.
Source text: as §1

In data set [5] the test system is calf thymus DNA. Nature of the data set: Calf-thymus DNA titration (absorption hypochroism). The class given is binding. How it is done: FIG. 20 is a graph of the titration of MA_AuPr (1.1a) with calf-thymus DNA in aqueous pH 7 phosphate buffer at 37° C.
The hypochroism of the absorption band of the complex at 383 nm was monitored as a function of added ctDNA. […] Ka is the equilibrium binding constant in M^−1, Ct is the total Au(III) complex concentration, and s is the binding site size.

For data set [6], the system named is HeLa cells. Nature of the data set: HeLa cell cytotoxicity dose-response. Format: cell-based. As to the method: FIG. 9 is a graph of the dose-response curves (HeLa cells, pH 7.0, 37° C.) for three macrocyclic Au(III) chelates. IC50 values for the complexes against HeLa cells obtained from the least squares data fits (graph) are given in the 3rd column of the table.
A summary of the average cytotoxicity data over 60 human cancer cell lines for 1.1a-1.1c and comparison with selected commercial and patented cytotoxic agents is shown in Scheme 7. […] The more abrupt the curve, the harder the dose-response function.

The test system of data set [7] is human cancer cell lines. Nature of the data set: Cytotoxicity summary (NCI-60 or independent cytotoxicity screen), Scheme 19. Format: cell-based.
Data set [8] addresses topoisomerase II (Homo sapiens, UniProt P11388). Nature of the data set: Topoisomerase II DNA cleavage/relaxation assay, supercoiled plasmid DNA, EB gel (TopoGEN protocol). Format: biochemical. The conditions noted are these: for action on topoisomerase II: compared with VP-16 (etoposide); for concentration at which topoisomerase II poisoning (DNA cleavage induction) is observed: supercoiled plasmid DNA, linear cleavage products. How it is done:
The compound MA_AuPr clearly targets topoisomerase II if the statistical analysis of the NCI data for a range of drugs shown in FIG. 13 is correct. MA_AuPr was therefore assayed for its action against topoisomerase II in vitro using TopoGEN's standard protocol over a wide range of test agent concentrations (0.005 to 500 μM) in order to obtain direct experimental proof for the apparent cellular target of the compound to ensure that a fundamental understanding of the mechanism of action of this new class of Au(III) compounds exists. These experiments were performed by the company TopoGEN and at the University of Central Florida. The DNA cleavage experiments were performed in vitro using purified topoisomerase I and II enzymes and supercoiled plasmid DNA as the substrate. The controls that were used in the experiment were linear marker DNA as well as reactions without the gold(III) complex and high concentrations of VP16. The compound VP16 (etoposide) is a commercially available DNA intercalator chemotherapeutic agent, widely used in the treatment of lung and testicular cancers as well as lymphomas. The choice of VP16 as a control is based on the fact that it is a poor topoisomerase II inhibitor, but is a powerful topoisomerase II poison which arrests the enzyme's cycle at the ternary drug-enzyme-DNA cleavage complex stage, leading to observation of linear DNA fragments upon SDS denaturation of the enzyme (i.e., work-up). Comparison of the VP16 results with the results of MA_AuPr would therefore give a good indication of whether the gold(III) chelate is an inhibitor or a poison.
Lane 1 of the gel (FIG. 14) is the control experiment with only supercoiled plasmid DNA present. The control contains no topoisomerase II and so the DNA supercoiled structure cannot be relaxed, as the topoisomerase II enzyme would usually do. […] At a higher concentration of the test agent (50 μM), both supercoiled plasmid DNA and linear cleavage products are observed. […] At very high concentrations (>500 μM), MA_AuPr behaves exclusively as a catalytic inhibitor of the enzyme.
The role of gold(III) in the efficacy of the compound was determined by modifying the structure of MA_AuPr by replacing the Au(III) cation with Pd(II) to afford MA_PdPr (the isoelectronic square planar coordination complex of known structure and geometry^31) and carrying out the DNA relaxation assay with topoisomerase II as before. The metal-free ligand (MA_H2PrLig) was tested under identical conditions to confirm that the mechanism of action is related to the intact structure of the metal chelate.

A short description of data set [9]: Caco-2 transport. The conditions noted are these: human. An excerpt:
The Caco-2 data are especially important as many drugs fail due to poor membrane transport/absorption.

Setting [10] is: comparison drugs, NCI database, 50% growth inhibition.
The mark [11] stands for this setting: MA series: pH 7.0 phosphate buffer at 37° C.

topoisomerase II, sequence (P11388 whole entry): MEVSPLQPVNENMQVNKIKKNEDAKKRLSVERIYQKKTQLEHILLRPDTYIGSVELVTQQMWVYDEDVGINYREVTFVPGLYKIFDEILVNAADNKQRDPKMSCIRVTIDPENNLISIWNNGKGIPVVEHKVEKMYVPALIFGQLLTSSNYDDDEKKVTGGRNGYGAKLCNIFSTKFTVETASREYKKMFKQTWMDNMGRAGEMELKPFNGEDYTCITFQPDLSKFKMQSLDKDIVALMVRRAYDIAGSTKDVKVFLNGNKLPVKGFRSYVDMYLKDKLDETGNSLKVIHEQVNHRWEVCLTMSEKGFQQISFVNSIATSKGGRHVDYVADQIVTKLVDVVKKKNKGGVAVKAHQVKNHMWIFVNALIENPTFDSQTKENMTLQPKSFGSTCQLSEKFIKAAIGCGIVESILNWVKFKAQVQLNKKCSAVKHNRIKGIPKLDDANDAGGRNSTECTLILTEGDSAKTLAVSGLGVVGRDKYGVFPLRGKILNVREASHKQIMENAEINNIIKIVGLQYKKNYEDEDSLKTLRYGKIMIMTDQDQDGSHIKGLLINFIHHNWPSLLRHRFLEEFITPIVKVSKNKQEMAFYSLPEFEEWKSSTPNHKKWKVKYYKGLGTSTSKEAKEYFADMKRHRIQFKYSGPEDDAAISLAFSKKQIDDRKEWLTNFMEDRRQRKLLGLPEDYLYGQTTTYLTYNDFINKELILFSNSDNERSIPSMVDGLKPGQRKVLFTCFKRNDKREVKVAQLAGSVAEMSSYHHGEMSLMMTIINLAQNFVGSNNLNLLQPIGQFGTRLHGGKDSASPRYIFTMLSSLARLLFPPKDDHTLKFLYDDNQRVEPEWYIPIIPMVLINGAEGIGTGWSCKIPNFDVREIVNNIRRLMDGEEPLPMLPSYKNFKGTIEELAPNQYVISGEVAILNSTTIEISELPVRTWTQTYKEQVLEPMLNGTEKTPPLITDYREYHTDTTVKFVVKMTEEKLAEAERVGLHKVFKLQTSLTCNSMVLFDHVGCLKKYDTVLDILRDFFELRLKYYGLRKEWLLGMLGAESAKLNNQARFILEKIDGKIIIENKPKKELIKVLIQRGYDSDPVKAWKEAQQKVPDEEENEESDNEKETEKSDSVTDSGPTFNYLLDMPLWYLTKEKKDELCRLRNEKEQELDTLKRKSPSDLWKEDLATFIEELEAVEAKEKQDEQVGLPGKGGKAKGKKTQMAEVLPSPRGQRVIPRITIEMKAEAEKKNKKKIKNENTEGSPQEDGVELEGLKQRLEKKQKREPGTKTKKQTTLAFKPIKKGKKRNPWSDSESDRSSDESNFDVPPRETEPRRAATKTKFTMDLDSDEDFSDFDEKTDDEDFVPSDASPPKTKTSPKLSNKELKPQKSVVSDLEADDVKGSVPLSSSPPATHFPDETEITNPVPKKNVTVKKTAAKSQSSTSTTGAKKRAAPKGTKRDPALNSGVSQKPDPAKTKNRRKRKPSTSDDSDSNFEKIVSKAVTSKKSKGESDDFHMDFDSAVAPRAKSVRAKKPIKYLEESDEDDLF

Consider `Cl.Cl.[Cl][Au-]12[n+]3ccccc3-c3cccc([n+]31)-c1cccc[n+]12` [(Au^III(terpy)Cl]Cl2], for which the concentration for 50% growth inhibition (GI50) in data set [1] (setting [10]) was 0.13 µM. In data set [1] (comparison drugs, NCI database), the CC50 was 73 µM and the IC50 was 11 µM.
Turning to `CC[C@@]1(O)C(=O)OCc2c1cc1n(c2=O)Cc2cc3ccccc3nc2-1` [Camptothecin], the 50% growth inhibitory concentration (GI50) in data set [1] (comparison drug) was 0.04 µM. The GI50 in [1] (setting [10]) was 0.04 µM. In addition, in [1] (comparison drugs, NCI database), the CC50 is 33 µM and the IC50 was 0.89 µM. For the same compound, in data set [2] (on average over the full 60 cell lines), the “increase in concentration from 50% growth inhibition to 50% cell kill” value is given as 825 fold.
Take `CN(C)CCCN1c2ccccc2Sc2ccc(Cl)cc21` [Chlorpromazine, reference compound]: the “Cell Loss MEC” value in data set [3] worked out at 100 µM. The “Cytochrome C release MEC” value in data set [3] is 11 µM. Besides, the “DNA structure MEC” value in [3] came to 11 µM. Besides, the “Mitochondrial mass MEC” value in data set [3] was determined as 3.7 µM. In data set [3], the “Mitochondrial membrane potential MEC” value came out at 3.7 µM. In data set [3], the “Nuclear Area MEC” value is greater than 11 µM. Further, the concentration at half-maximal activity (AC50) stood at 7.8 µM in [4] (Cell Loss AC50); 16 µM in [4] (Cytochrome C release AC50); 196 µM in data set [4] (DNA structure AC50); 30 µM in [4] (Membrane permeability AC50); 5.4 µM in data set [4] (Mitochondrial mass AC50); 50 µM in [4] (Mitochondrial membrane potential AC50). Further, the half-maximal activity concentration (AC50) in data set [4] (Nuclear Area AC50) worked out at 100 µM.
With `C1=[N+]2CCCC[N+]3=Cc4ccc5[n]4[Au-]23[n]2c1ccc2-c1nc2ccccc2nc1-5.F[P-](F)(F)(F)(F)F` [KA_AumacroBu, {12,13,14,15-tetrahydro-6,9:18,21-diepimino[1,6]diazacycloctadecino[12,13-b]quinoxalinato}gold(III) hexafluorophosphate(V)], the “Ka (calf thymus DNA)” value in [5] (KA series: pH 7.0 15% DMSO-TRIS buffer at 25° C.) is listed as 1.20(9) × 10^6 M^−1. The GI50 in data set [6] was roughly 0.1 µM. The concentration for half-maximal inhibition (IC50) in data set [6] (pH 7.0, 37° C.) amounted to 0.37 µM. In data set [6] (read-out: LC50 (the source's name)), the CC50 was less than 10 µM. Moreover, the Cytotoxicity result in data set [7] is on record as “active”.
As to `ClC1C[N+]2=Cc3ccc[n]3[Au-]23[n]2cccc2C=[N+]3C1.F[P-](F)(F)(F)(F)F` [MA_AuCl, 2,2′-{(2-chloropropane-1,3-diyl)bis[nitrilo(E)methylylidene]}bis(pyrrol-1-ido)gold(III) hexafluorophosphate(V)], the “Ka (calf thymus DNA)” value in data set [5] (setting [11]) is on record as 3.91(7) × 10^5 M^−1. For the same compound, the Cytotoxicity entry in data set [7] is recorded as “active”.
On to `CC1(C)C[N+]2=Cc3ccc[n]3[Au-]23[n]2cccc2C=[N+]3C1.[Cl-]` [MA_AuDM, 2,2′{(2,2-dimethylpropane-1,3-diyl)bis[nitrilo(E)methyl-ylidene]}bis(pyrrol-1-ido)gold(III) chloride], for which, in data set [5] (setting [11]), the “Ka (calf thymus DNA)” value is listed as 1.63(3) × 10^5 M^−1. The Cytotoxicity result in [7] was “active”. Also, in data set [2] (60 human cancer cell lines), the “fraction of cancer cell lines equivalently or more susceptible than to cisplatin” value is “around 12%”. In data set [2] (mean over 60 human cancer cell lines, 50% cell death, read-out: LC50 (the source's name)), the CC50 was 72 µM. In addition, in [2] (mean over 60 human cancer cell lines, 50% growth inhibition), the GI50 is 12 µM. Besides, the TGI (concentration for total growth inhibition) in data set [2] (mean over 60 human cancer cell lines, 100% (total) growth inhibition, read-out: TGI or IC50) stood at 31 µM. The “growth inhibition activity relative to cisplatin, on average” value in [2] (plot of −log(GI50/M) versus cisplatin, FIG. 10) amounted to 91%.
For `CCOC1C[N+]2=Cc3ccc[n]3[Au-]23[n]2cccc2C=[N+]3C1.F[P-](F)(F)(F)(F)F` [MA_AuOEt, 2,2{(2-ethoxypropane-1,3-diyl)bis[nitrilo(E)methylylidene]}bis(pyrrol-1-ido)gold(III) hexafluorophosphate(V)], the “Ka (calf thymus DNA)” value in data set [5] (setting [11]) is 1.01(4) × 10^6 M^−1. Moreover, in [7], the Cytotoxicity result is “active”.
As for `C(=NCCCN=Cc1ccc[nH]1)c1ccc[nH]1` [MA_H2PrLig], in data set [8], the “action on topoisomerase II” value was “inactivity” and the “concentration at which topoisomerase II poisoning (DNA cleavage induction) is observed” value stood at 500 µM.
Take `C(=NCCCN=Cc1ccc[n-]1)c1ccc[n-]1.[Pd+2]` [MA_PdPr]: in data set [8] (DNA-cleavage induction in presence of topoisomerase II), the “weaker effect than the gold(III) complex” value stood at 100 fold. Also, in data set [8], the “action on topoisomerase II” value is “diminished activity” and the “concentration at which topoisomerase II poisoning (DNA cleavage induction) is observed” value came to 50 µM.
As for `CO[C@@]12[C@H](COC(N)=O)C3=C(C(=O)C(C)=C(N)C3=O)N1C[C@@H]1N[C@@H]12` [Mitomycin], in data set [1] (setting [10]), the GI50 was 0.71 µM. Besides, the 50% inhibitory concentration (IC50) in [1] (comparison drugs, NCI database) was 6.5 µM.
Take `CNC(=C[N+](=O)[O-])NCCSCc1ccc(CN(C)C)o1` [Ranitidine]: in data set [9], the Papp A→B at 2 h, 10 µM is 0.7 ×10⁻⁶ cm/s; the basolateral-to-apical permeability (Papp B→A) at 2 h, 10 µM was found to be 2.3 ×10⁻⁶ cm/s; the efflux ratio at 2 h, 10 µM is 3.3.
For `CC(=O)CC(c1ccccc1)c1c(O)c2ccccc2oc1=O` (stereo not drawn) [Warfarin], in [9] (Caco-2), the Papp A→B at 2 h, 10 µM was 37 ×10⁻⁶ cm/s; the Papp B→A at 2 h, 10 µM was 8 ×10⁻⁶ cm/s; the efflux ratio at 2 h, 10 µM amounted to 0.2.
Take `O=NN(CCCl)C(=O)NCCCl` [carmustine]: the “mean −log(GI50)” value in data set [1] (selected human cancer cell lines, data not shown) is 4.20.

The GI50 is the concentration giving 50% growth inhibition. Broadly, the IC50 is the concentration at which inhibition is half-maximal. Usually AC50 stands for the midpoint of the concentration-response curve, whichever way the signal moves. A higher AC50 goes with activity only at high concentration. Broadly, the Papp A→B is the apparent permeability from the apical to the basolateral side of a cell layer. A high value points to ready permeation. For orientation: Papp B→A means the apparent permeability from the basolateral to the apical side of a cell layer. As usually defined, the efflux ratio is the permeability from basolateral to apical divided by that in the opposite direction, in the common usage.

The record behind these values is US9346832B2, “Gold complexes for use in the treatment of cancer” (University of Kwazulu-Natal, priority 2010, dated 2016).
